In the NIST ThermoML archive (doi:10.1016/j.jct.2013.04.022):

Assays:
[1] = refractive index (Na D-line) (dimensionless); conditions: 298.15 K; 85.9 kPa; Liquid; Standard Abbe refractometry
[2] = 298.15 K, 85.9 kPa, Liquid; for viscosity: Capillary tube (Ostwald / Ubbelohde) method; for mass density: Vibrating tube method
[3] = mn = molality of the nth substance listed, in mol/kg; conditions: 298.15 K, 85.9 kPa, Liquid; for mass density: Vibrating tube method; for viscosity: Capillary tube (Ostwald / Ubbelohde) method

C[S+](C)[O-] [dimethyl sulfoxide]
Conditions | mass density [kg/m3] | refractive index | viscosity [mPa·s]
[1] | – | 1.4762 | –
[2] | 1095.29 | – | 1.867

CCCCn1cc[n+](C)c1.[Br-] [1-butyl-3-methylimidazolium bromide] + CC(=O)N(C)C
[3]
Conditions | mass density [kg/m3]
m1 = 0.0527 | 944.36
m1 = 0.1475 | 946.97
m1 = 0.1994 | 950.03

CCCCn1cc[n+](C)c1.[Br-] [1-butyl-3-methylimidazolium bromide] + C[S+](C)[O-]
[3]
Conditions | mass density [kg/m3]
m1 = 0.0751 | 1099.03
m1 = 0.0981 | 1099.68
m1 = 0.1923 | 1103.73

CC(=O)N(C)C [N,N-dimethylethanamide]
Conditions | mass density [kg/m3] | refractive index | viscosity [mPa·s]
[1] | – | 1.436 | –
[2] | 936.57 | – | 0.961

Oc1ccccc1C=Nc1ccccc1N=Cc1ccccc1O [2,2'-[1,2-phenylenebis(nitrilomethylidyne)]bis-phenol] + CC(=O)N(C)C
[3]
Conditions | mass density [kg/m3] | viscosity [mPa·s]
m1 = 0.0106 | 937.33 | 0.954
m1 = 0.0323 | 938.87 | 0.975
m1 = 0.0497 | 940.11 | 0.992
m1 = 0.0704 | 941.6 | 1.012
m1 = 0.0899 | 942.99 | 1.031
m1 = 0.1092 | 944.36 | 1.049
m1 = 0.129 | 945.78 | 1.069
m1 = 0.1492 | 947.22 | 1.087
m1 = 0.174 | 949.06 | –
m1 = 0.1742 | – | 1.011

Oc1ccccc1C=Nc1ccccc1N=Cc1ccccc1O [2,2'-[1,2-phenylenebis(nitrilomethylidyne)]bis-phenol] + C[S+](C)[O-]
[3]
Conditions | mass density [kg/m3] | viscosity [mPa·s]
m1 = 0.0099 | 1095.61 | 1.998
m1 = 0.0307 | 1096.3 | 2.041
m1 = 0.0493 | 1096.92 | 2.073
m1 = 0.07 | 1097.62 | 2.109
m1 = 0.0911 | 1098.35 | 2.151
m1 = 0.1086 | 1098.95 | 2.208
m1 = 0.1311 | 1099.71 | 2.229
m1 = 0.1483 | 1100.31 | 2.289
m1 = 0.1717 | 1101.2 | 2.333
